Source: publication PMC5603587, “Pharmacological inhibition of CaMKK2 with the selective antagonist STO-609 regresses NAFLD” (Scientific Reports, 2017)
Like-named read-outs stand apart in the source and are kept apart here.

What was measured:
[1] = plasma pharmacokinetics after a single i.p. dose; type: in vivo; settings: male, C57BL/6 J, ip, mouse; for AUC(0-t): read-out: AUC 0-24, plasma
Description: (§1) Plasma samples were prepared by mixing 5.0 μl of plasma with 45 μl of ice-cold MeOH followed by centrifugation at 15,000 × g for 15 min to remove protein. The resulting supernates were transferred into autosampler vials for analysis. Tissues (liver, intestine, kidney, pancreas, spleen, lung, heart, testis, white adipose tissue, gastrocnemius and brain) were weighed and homogenized in H2O/MeOH (1:1 v/v, 100 mg tissue in 600 μl). A volume of 200 μl of MeOH was added to 100 μl of tissue extracts. After vortexing and centrifugation (15 min at 15,000 × g), each supernate was transferred to an autosampler vial and 5.0 μl was injected to a system combining ultra-high performance liquid chromatography (UHPLC) and quadrupole time of flight mass spectrometry (QTOFMS) for analysis. The concentration of STO-609 was calculated based on standard curves in the corresponding matrices. The pharmacokinetic parameters were calculated using non-compartmental analysis with PKSolver[20]. The linear trapezoidal rule was used for area under the curve (AUC) calculation.
(§2) Separation of STO-609 and its metabolites was achieved using a LC-QTOFMS system (Agilent Technologies, Santa Clara, CA) equipped with a 100 mm × 2.1 mm (Agilent XDB C18) column as previously described. Briefly, the column temperature was maintained at 45 °C. The flow rate was maintained at 0.3 ml/min with a gradient ranging from 2% to 98% aqueous acetonitrile containing 0.1% formic acid over a 15 min run. QTOFMS was operated in positive mode with electrospray ionization. Ultra high pure nitrogen was applied as the drying (12 L/min) and collision gas. The drying gas temperature was set at 325°C and nebulizer pressure was maintained at 35 psi. Capillary voltages were set at 3.5 kV. During mass spectrometry, real time mass correction and accurate mass were achieved by continuously measuring standard reference ions at m/z 121.0508, 922.0098 in the positive mode. The MS/MS of STO-609 and its metabolites was performed in targeted mode with a default isolation width of 4 m/z and collision energy ramp ranging from 20 to 50 V. Mass chromatograms and mass spectra were acquired by MassHunter® Workstation data Acquisition software (Agilent, Santa Clara, CA) in centroid and profile formats from m/z 100 to 1000. The acquisition rate was set as 1.5 spectra per second. Statistical analysis was conducted using Student’s independent t-test. Data are presented as mean ± s.e.m.

[2] = tissue distribution after a single i.p. dose; type: in vivo; settings: ip, 30 μM/kg i.p., mouse; for Cmax: 30 μM/kg
Description: as §1, §2

O=C(O)c1ccc2c3c1cccc3c(=O)n1c3ccccc3nc21 [STO-609^S] showed an AUC(0-inf) ([1]; 30 μM/kg i.p.) of 317 µM·h, a CL/F ([1]; 30 μM/kg i.p.) of 1.5 mL/min/kg and a Cmax ([1]; 30 μM/kg i.p.) of 32600 nM. For the same compound, the AUC(0-t) ([1]; 30 μM/kg i.p.) was 245 µM·h, the half-life ([1]; 30 μM/kg i.p., read-out: t½, plasma (converted)) was 12.2 h and the AUC(0-inf) ([1]; 300 μM/kg i.p.) was 3250 µM·h. It also gave a CL/F ([1]; 300 μM/kg i.p.) of 1.5 mL/min/kg, a Cmax ([1]; 300 μM/kg i.p.) of 473000 nM and an AUC(0-t) ([1]; 300 μM/kg i.p.) of 2930 µM·h. The half-life ([1]; 300 μM/kg i.p., read-out: t½, plasma (converted)) was 7.93 h, the half-life ([1]; 30 and 300 μM/kg i.p., read-out: t½, plasma, over the doses) was 8 to 12 h and the half-life ([2]; C57BL/6J, intestine, read-out: t½, intestine (converted)) was 3.85 h. The half-life ([2]; C57BL/6J, kidney, read-out: t½, kidney (converted)) was 8.5 h, the Cmax ([2]; C57BL/6J, intestine, read-out: Cmax, intestine) was 517 nM and the Cmax ([2]; C57BL/6J, intestine, read-out: Cmax, intestine (text)) was ~500 nM. For the same compound, the Cmax ([2]; C57BL/6J, pancreas, read-out: Cmax, pancreas) was 329 nM, the half-life ([2]; C57BL/6J, pancreas, read-out: t½, pancreas (converted)) was 3.18 h and the half-life ([2]; C57BL/6J, spleen, read-out: t½, spleen (converted)) was 4 h. For the same compound, the half-life ([2]; male, C57BL/6 J, brain, read-out: t½, brain (converted)) was 5.21 h, the half-life ([2]; male, C57BL/6 J, gastrocnemius, read-out: t½, gastrocnemius (converted)) was 5.83 h and the half-life ([2]; male, C57BL/6 J, heart, read-out: t½, heart (converted)) was 3.01 h. It also gave a half-life ([2]; male, C57BL/6 J, liver, read-out: t½, liver (converted)) of 3.74 h, a half-life ([2]; male, C57BL/6 J, lung, read-out: t½, lung (converted)) of 3.24 h and a Cmax ([2]; male, C57BL/6 J, gastrocnemius, read-out: Cmax, gastrocnemius) of 84 nM. It also gave a Cmax ([2]; male, C57BL/6 J, heart, read-out: Cmax, heart) of 293 nM, a Cmax ([2]; male, C57BL/6 J, spleen, read-out: Cmax, spleen) of 341 nM and a Cmax ([2]; male, C57BL/6 J, testis, read-out: Cmax, testis) of 209 nM. The Cmax ([2]; male, C57BL/6 J, white adipose tissue, read-out: Cmax, white adipose tissue) was 137 nM, the half-life ([2]; male, C57BL/6 J, testis, read-out: t½, testis (converted)) was 3.95 h and the half-life ([2]; male, C57BL/6 J, white adipose tissue, read-out: t½, white adipose tissue (converted)) was 3.93 h.
